Tests used:
human PBMC = test: Cytokine production (IL-1β, IL-6) at 24 hr by human PBMC incubated with 1 ng/mL LPS; assay type: cell-based; settings: for inhibition of IL-1β production / inhibition of IL-6 production: free steroid payloads, serial dilutions, 1 ng/mL LPS, 24 hr
Method: (§1) FIG. 51: INX-SM-3, INX-SM-4, and INX-SM-1 inhibit IL-1β (left) and IL-6 (right) production. Cytokine levels were measured at 24 hr for human PBMCS incubated with 1 ng/mL LPS and serial dilutions (1000-1 nM) of steroid payloads, with the no treatment control plotted on the log-scale x-axis at <1 nM; n=1 donor, standard deviation plotted from technical duplicates.
as §1, with “52: INX-SM-1,” for “51:”, “INX-SM-4” for “INX-SM-4,”, “INX-SM-6” for “INX-SM-1”, “IL-1β” for “IL-1β (left) and IL-6 (right)”, “levels” for “levels were”, “ng/ml” for “ng/mL”
(§2) FIG. 53: INX-SM-9, INX-SM-31 and INX-SM-35 inhibit IL-1β (top) and IL-6 (bottom) production. Cytokine levels measured at 24 hr for human PBMCS incubated with 1 ng/mL LPS and serial dilutions (1000-0.2 nM) of steroid payloads, with the no treatment control plotted on the log-scale x-axis at <0.2 nM; n=2 donors-representative donor shown. Standard deviation plotted from technical duplicates.
as §2, with “54: INX-SM-32 inhibits” for “53: INX-SM-9, INX-SM-31 and INX-SM-35 inhibit”, “(500-1” for “(1000-0.2”, “<1” for “<0.2”, “n=2. Representative” for “n=2 donors-representative”
Cytokine levels measured at 24 hr for human PBMCS incubated with 1 ng/ml LPS and serial dilutions (1000-0.5 nM) of steroid payloads, with the no treatment control plotted on the log-scale x-axis at <0.5 nM; n=1 donor, standard deviation plotted from technical duplicates.
FIG. 56: INX-SM-2 and INX-SM-7 show inhibition in IL-1β. Average Cytokine levels measured at 24 hr for human PBMCS incubated with 1 ng/ml LPS and serial dilutions (1000-0.16 nM) of steroid payloads, with the no treatment control plotted on the log-scale x-axis at <0.16 nM; n=1, standard deviation plotted from technical duplicates. […]
Average cytokine levels measured at 24 hr for human PBMC incubated with 1 ng/ml LPS and serial dilutions (100-0.032 nM) of glucocorticoid payloads; n=1, mean of technical duplicates.
Average cytokine levels measured at 24 hr for human PBMC incubated with 1 ng/mL LPS and serial dilutions (1000-0.32 nM) of glucocorticoid payloads; n=1, mean of technical duplicates.
Cytokine levels measured at 24 hr for human PBMC incubated with 1 ng/mL LPS and serial dilutions (1000-0.5 nM) of steroid payloads, with the no treatment control plotted on the log-scale x-axis at <0.5 nM; n=1 donor, mean of technical duplicates plotted.
Average cytokine levels for A. hull-1β B. huIL-6 measured at 24 hr for human PBMC incubated with 1 ng/mL LPS and serial dilutions (1000-0.16 nM) of conjugated steroid linker payloads, with the no treatment control plotted on the log-scale x-axis at <0.16 nM; n=1, standard deviation plotted from technical duplicates. Values above the ULOQ (12,500 pg/mL for IL-1b and 150,000 pg/mL for IL-6) were plotted as the extrapolated value.
Average cytokine levels for IL-1β measured at 24 hr for human PBMC incubated with 1 ng/mL LPS and serial dilutions (1000-0.16 nM) of conjugated steroid linker payloads, with the no treatment control plotted on the log-scale x-axis at <0.16 nM; n=1, mean plotted of technical duplicates
Average cytokine levels for IL-1β measured at 24 hr for human PBMC incubated with 1 ng/mL LPS and serial dilutions (1000-0.16 nM) of conjugated steroid linker payloads, with the no treatment control plotted on the log-scale x-axis at <0.16 nM; n=1, mean plotted of technical duplicates.
FIG. 66: Analogs of INX V are potent relative to INX231J. […]

[1] = system: LPS stimulated human PBMCs; test: LPS stimulated human PBMC, IL-1β and IL-6 ELISA; assay type: cell-based; settings: for inhibition of IL-1β and IL-6 production / inhibition of IL-1β production: 24 hr
Method: The potency of novel steroids was assessed in a model of LPS stimulated human peripheral blood mononuclear cells (PBMCS). Stimulated PBMCs in this assay produce multiple pro-inflammatory cytokines1.
In all the following experiments, human PBMC, isolated from 1-2 healthy donors per study, were stimulated with LPS to induce cytokine production.
LPS was added either immediately after addition of free payload, or in the case of conjugates, four hours after addition of the conjugate.
Cells were plated in flat bottom 96 well plates at a final concentration of 150,000 cells/well, with technical duplicates for each condition.
Test agents were serially diluted in the assay media and added to a final concentration of 1,000 nM-1 nM or 0.2 nM depending on the assay or as a no treatment control.
LPS stimulation was added to a final concentration of 1 ng/ml.
Human IL-1β and IL-6 ELISA kits were used on supernatants according to vendor protocols. All graphs were prepared with GraphPad (Prism).

[2] = Experiment 1: free payload 1000-1 nM, 1 ng/ml LPS, n=1 donor
[3] = Experiment 2: free payload 1000-1 nM, n=1 donor
[4] = Experiment 6: free payload 1000-0.16 nM

Structure (SMILES) | inhibition of IL-1β production (human PBMC) | inhibition of IL-6 production (human PBMC) | inhibition of IL-1β production [1, 3] | other results
C[C@]12C=CC(=O)C=C1[C@@H](F)C[C@H]1[C@@H]3C[C@H]4O[C@@H](c5ccc(CC6CC7(C6)CC(NC(=O)[C@H](CCC(=O)O)NC(=O)CNC(=O)CBr)C7)cc5)O[C@@]4(C(=O)CO)[C@@]3(C)C[C@H](O)[C@@]12F (stereo partly drawn) [INX A23, (S)-4-(2-(2-bromoacetamido)acetamido)-5-((6-(4-((2S,6aS,6bR,7S,8aS,8bS,10R,11aR,12aS,12bS)-2,6b-difluoro-7-hydroxy-8b-(2-hydroxyacetyl)-6a,8a-dimethyl-4-oxo-2,4,6a,6b,7,8,8a,8b,11a,12,12a,12b-dodecahydro-1H-naphtho[2′,1′:4,5]indeno[1,2-d][1,3]dioxol-10-yl)benzyl)spiro[3.3]heptan-2-yl)amino)-5-oxopentanoic acid] | – | – | – | potency in reducing IL-1β production (human PBMC; anti-VISTA conjugates, serial dilutions with respect to total ADC concentration (20-0.003 μg/mL), equivalent or reduced DAR): enhanced potency; potency of conjugated linker payloads over INX J (conclusions) [1]: enhanced potency
C[C@]12C=CC(=O)C=C1CC[C@@H]1[C@@H]2[C@@H](O)C[C@@]2(C)[C@H]1C[C@H]1O[C@@H](c3ccc(Cc4cnc(N)s4)cc3)O[C@]12C(=O)CO [INX-SM-1, (6aR,6bS,7S,8aS,8bS,10R,11aR,12aS,12bS)-10-(4-((2-aminothiazol-5-yl)methyl)phenyl)-7-hydroxy-8b-(2-hydroxyacetyl)-6a,8a-dimethyl-1,2,6a,6b,7,8,8a,8b,11a,12,12a,12b-dodecahydro-4H-naphtho[2′,1′:4,5]indeno[1,2-d][1,3]dioxol-4-one] | inhibit | inhibit | show inhibition in IL-1β production | inhibition of IL-1β and IL-6 production [1, 2]: inhibit both IL-1β and IL-6 production
C[C@]12C=CC(=O)C=C1CC[C@@H]1[C@@H]2[C@@H](O)C[C@@]2(C)[C@H]1C[C@H]1O[C@@H](c3ccc(Cc4csc(N)n4)cc3)O[C@]12C(=O)CO [INX-SM-2, (6aR,6bS,7S,8aS,8bS,10R,11aR,12aS,12bS)-10-(4-((2-aminothiazol-4-yl)methyl)phenyl)-7-hydroxy-8b-(2-hydroxyacetyl)-6a,8a-dimethyl-1,2,6a,6b,7,8,8a,8b,11a,12,12a,12b-dodecahydro-4H-naphtho[2′,1′:4,5]indeno[1,2-d][1,3]dioxol-4-one] | inhibition | – | – | inhibition of IL-1β production [1, 4]: dose-dependent inhibition in IL-1β production
C[C@]12C=CC(=O)C=C1CC[C@@H]1[C@@H]2[C@@H](O)C[C@@]2(C)[C@H]1C[C@H]1O[C@@H](C34CC(Cc5cccc(N)c5)(C3)C4)O[C@]12C(=O)CO [INX-SM-4, (6aR,6bS,7S,8aS,8bS,10R,11aR,12aS,12bS)-10-(3-(3-aminobenzyl)bicyclo[1.1.1]pentan-1-yl)-7-hydroxy-8b-(2-hydroxyacetyl)-6a,8a-dimethyl-1,2,6a,6b,7,8,8a,8b,11a,12,12a,12b-dodecahydro-4H-naphtho[2′,1′:4,5]indeno[1,2-d][1,3]dioxol-4-one] | inhibit | inhibit | show inhibition in IL-1β production | inhibition of IL-1β and IL-6 production [1, 2]: inhibit both IL-1β and IL-6 production
C[C@]12C=CC(=O)C=C1CC[C@@H]1[C@@H]2[C@@H](O)C[C@@]2(C)[C@H]1C[C@H]1O[C@@H](c3cnc(Cc4cccc(N)c4)s3)O[C@]12C(=O)CO [INX-SM-6] | inhibit | – | show inhibition in IL-1β production | –
C[C@]12C=CC(=O)C=C1CC[C@@H]1[C@@H]2[C@@H](O)C[C@@]2(C)[C@H]1C[C@H]1O[C@@H](c3ccc(Cc4ncc(N)s4)cc3)O[C@]12C(=O)CO [INX-SM-7, (6aR,6bS,7S,8aS,8bS,10R,11aR,12aS,12bS)-10-(4-((5-aminothiazol-2-yl)methyl)phenyl)-7-hydroxy-8b-(2-hydroxyacetyl)-6a,8a-dimethyl-1,2,6a,6b,7,8,8a,8b,11a,12,12a,12b-dodecahydro-4H-naphtho[2′,1′:4,5]indeno[1,2-d][1,3]dioxol-4-one] | inhibition | – | – | inhibition of IL-1β production [1, 4]: dose-dependent inhibition in IL-1β production
C[C@]12C=CC(=O)C=C1CC[C@@H]1[C@@H]2[C@@H](O)C[C@@]2(C)[C@H]1C[C@H]1O[C@@H](c3ccc(CC45C6C7C4C4C5C6C74N)cc3)O[C@]12C(=O)CO (stereo partly drawn) [INX-SM-9, (6aR,6bS,7S,8aS,8bS,10R,11aR,12aS,12bS)-10-(4-((4-aminocuban-1-yl)methyl)phenyl)-7-hydroxy-8b-(2-hydroxyacetyl)-6a,8a-dimethyl-1,2,6a,6b,7,8,8a,8b,11a,12,12a,12b-dodecahydro-4H-naphtho[2′,1′:4,5]indeno[1,2-d][1,3]dioxol-4-one] | inhibit | inhibit | – | inhibition of IL-1β production ([1]; Experiment 3: free payload 1000-0.2 nM, n=2 donors): dose dependent inhibition in IL-1β production
C[C@]12C=CC(=O)C=C1CC[C@@H]1[C@@H]2[C@@H](O)C[C@@]2(C)[C@H]1C[C@H]1O[C@@H](c3ccc(CC45CCC(N)(CC4)CC5)cc3)O[C@]12C(=O)CO [INX-SM-10, (6aR,6bS,7S,8aS,8bS,11aR,12aS,12bS)-10-(4-((4-aminobicyclo[2.2.2]octan-1-yl)methyl)phenyl)-7-hydroxy-8b-(2-hydroxyacetyl)-6a,8a-dimethyl-1,2,6a,6b,7,8,8a,8b,11a,12,12a,12b-dodecahydro-4H-naphtho[2′,1′:4,5]indeno[1,2-d][1,3]dioxol-4-one] | robust inhibition | robust inhibition | – | inhibition of IL-1β and IL-6 production ([1]; Experiment 5: free payload 1000-0.5 nM): robust inhibition in IL-1β (top) and IL-6 (bottom) production
C[C@]12C=CC(=O)C=C1CC[C@@H]1[C@@H]2[C@@H](O)C[C@@]2(C)[C@H]1C[C@H]1CN(Cc3ccc(CC45CC(N)(C4)C5)cc3)C[C@]12C(=O)CO [INX-SM-17, (6aR,6bS,7S,8aS,8bS,11aR,12aS,12bS)-10-(4-((3-aminobicyclo[1.1.1]pentan-1-yl)methyl)benzyl)-7-hydroxy-8b-(2-hydroxyacetyl)-6a,8a-dimethyl-1,6a,6b,7,8,8a,8b,9,10,11,11a,12,12a,12b-tetradecahydronaphtho[2′,1′:4,5]indeno[1,2-c]pyrrol-4 (2H)-one 2,2,2-trifluoroacetate] | weakly inhibits | – | – | inhibition of IL-1β and IL-6 ([1]; Experiment 12: free payloads 1000-0.15 nM): only weakly inhibit IL-1β
